Consider one molecule from ChEMBL document CHEMBL1275549, “A new tetracycline efflux gene, tet(40), is located in tandem with tet(O/32/O) in a human gut firmicute bacterium and in metagenomic library clones” (Antimicrob Agents Chemother, 2008).

Molecules are shown by their SMILES. ≈ marks a conversion by molar mass, not a printed value.

Assay [1] deals with Escherichia coli. Briefly: Antibacterial activity against Escherichia coli EPI300 harboring plasmid GEM-T expressing tet(40) gene after 16 hrs. The conditions noted are these: EPI300, 16 h. The class given is functional, organism-based.
For assay [2], the system named is Escherichia coli. Description: Antibacterial activity against Escherichia coli EPI300 expressing tet(W) gene assessed as inhibition of bacterial growth at 80 ug/ml after 18 hrs in presence of 2.5 ug/ml efflux pump inhibitor CCCP; values are per cent of control.
Assay [3] relates to Escherichia coli. Briefly: Antibacterial activity against Escherichia coli EPI300 expressing tet(40) gene assessed as bacterial growth at 60 ug/ml after 18 hrs in presence of 2.5 ug/ml efflux pump inhibitor CCCP.
The test system of assay [4] is Escherichia coli. Description: Antibacterial activity against Escherichia coli EPI300 expressing tet(W) gene assessed as bacterial growth at 60 ug/ml after 18 hrs in presence of 2.5 ug/ml efflux pump inhibitor CCCP.
Assay [5] concerns Escherichia coli. Description: Antibacterial activity against Escherichia coli EPI300 expressing tet(40) gene assessed as inhibition of bacterial growth at 40 ug/ml after 18 hrs in presence of 2.5 ug/ml efflux pump inhibitor CCCP; values are per cent of control.
Assay [6] concerns Escherichia coli. Description: Antibacterial activity against Escherichia coli EPI300 expressing tet(40) gene assessed as bacterial growth at 80 ug/ml after 18 hrs in presence of 2.5 ug/ml efflux pump inhibitor […].
For assay [7], the system named is Escherichia coli. Briefly: Antibacterial activity against Escherichia coli EPI300 expressing tet(W) gene assessed as inhibition of bacterial growth at 40 ug/ml after 18 hrs in presence of 2.5 ug/ml efflux pump inhibitor CCCP; values are per cent of control.

The molecule `CN(C)[C@@H]1C(O)=C(C(N)=O)C(=O)[C@@]2(O)C(O)=C3C(=O)c4c(O)cccc4[C@@](C)(O)[C@H]3C[C@@H]12` [TETRACYCLINE] returned an IC50 in assay [1] of 60 mg/L (≈ 135 µM). In addition, the “growth, % of control” value in assay [2] came out at 75.4%; in assay [3] it was 53.4%; in assay [4], 99.2%; in assay [5], 56.5%; in assay [6] it was 16.5%; in assay [7] it was 96.4%.

Usually IC50 stands for the midpoint of a concentration-inhibition curve. Read a low IC50 as greater potency in that assay.
